The values that follow come from patent US9345247B2, “Azaindole carboxylic acid amides and azaindole thiocarboxylic acid amides for use as insecticides and acaricides” (BAYER CROPSCIENCE AG, priority 2012, dated 2016).

Data set [1] in a line: log P by HPLC on reversed-phase column (C18), EEC directive 79/831 Annex V.A8. The class given is physicochemical. The note with it: HPLC, acidic range pH 2.7, 43° C. Put shortly: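 log P determined per EEC directive 79/831 Annex V.A8 by reversed-phase C18 HPLC at 43 °C, calibrated with unbranched alkan-2-ones (C3–C16) of known log P. Acidic-range determination at pH 2.7 with 0.1% formic acid acetonitrile/water, linear 10–95% acetonitrile gradient.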

The subject of another data set is Lucilia cuprina larvae. Briefly: Lucilia cuprina test (LUCICU). The class given is in vivo. The note with it: 100 ppm, after 2 days. How it is done: Lucilia cuprina Test (LUCICU) [table] To produce a suitable active compound formulation, 10 mg of active compound are mixed with 0.5 ml of dimethyl sulfoxide, and the concentrate is diluted with water to the desired concentration. Vessels containing horse meat treated with the active compound formulation of the desired concentration are populated with about 20 Lucilia cuprina larvae. After 2 days, the kill in % is determined 100% means that all the larvae have been killed; 0% means that none of the larvae have been killed.

In data set [2] the test system is caterpillars of the armyworm (Spodoptera frugiperda). The experiment in a line: Spodoptera frugiperda spray test (SPODFR). Format: in vivo. The note with it: 100 g/ha, spray, after 7 days. As to the method:
Spodoptera frugiperda—Spray Test (SPODFR)
(§1) To produce a suitable active compound formulation, 1 part by weight of active compound is mixed with the stated amounts of solvent and emulsifier, and the concentrate is diluted with emulsifier-containing water to the desired concentration.
Leaf discs of maize (Zea mays) are sprayed with an active compound formulation of the desired concentration and, after drying, populated with caterpillars of the armyworm (Spodoptera frugiperda).
After 7 days, the efficacy in % is determined. 100% means that all the caterpillars have been killed; 0% means that no caterpillars have been killed.
To produce a suitable preparation of active compound, 1 part by weight of active compound is mixed with the stated amounts of solvent and emulsifier, and the concentrate is diluted with emulsifier-containing water to the desired concentration.
Leaf discs of maize (Zea mays) are sprayed with an active compound preparation of the desired concentration and, after drying, populated with caterpillars of the armyworm (Spodoptera frugiperda).
After the stated period of time, the effect in % is determined. 100% means that all the caterpillars have been killed; 0% means that no caterpillars have been killed.

In another data set the test system is adult Musca domestica. The experiment in a line: Musca domestica test (MUSCDO). Format: in vivo. The note with it: 100 ppm, after 2 days. How it is done:
Musca domestica Test (MUSCDO) [table] To produce a suitable active compound formulation, 10 mg of active compound are mixed with 0.5 ml of dimethyl sulfoxide, and the concentrate is diluted with water to the desired concentration. Vessels containing a sponge treated with the active compound formulation of the desired concentration are populated with adult Musca domestica. After 2 days, the kill in % is determined 100% means that all flies have been killed; 0% means that no flies have been killed.

Another data set has as its system Ctenocephalides felis. Briefly: Ctenocephalides felis; oral (CTECFE). Format: in vivo. The note with it: 100 ppm, oral in cattle blood, after 2 days. As to the method: Ctenocephalides felis; Oral (CTECFE)
To produce a suitable active compound formulation, 10 mg of active compound are mixed with 0.5 ml of dimethyl sulphoxide. A portion of the concentrate is diluted with citrated cattle blood, and the desired concentration is prepared.
About 20 unfed adult fleas (Ctenocephalides felis) are placed into a chamber which is closed at the top and bottom with gauze. A metal cylinder whose bottom end is closed with parafilm is placed onto the chamber. The cylinder contains the blood/active compound preparation, which can be imbibed by the fleas through the parafilm membrane.
After 2 days, the kill in % is determined 100% means that all fleas have been killed; 0% means that none of the fleas have been killed.

The subject of data set [3] is green peach aphid (Myzus persicae). Briefly: Myzus persicae spray test (MYZUPE). Conditions: 100 g/ha, after 6 days. Format: in vivo. How it is done: Myzus persicae-Spray Test (MYZUPE) [table] To produce a suitable active compound formulation, 1 part by weight of active compound is mixed with the stated amounts of solvent and emulsifier, and the concentrate is diluted with emulsifier-containing water to the desired concentration. Discs of Chinese cabbage leaves (Brassica pekinensis) infested by all stages of the green peach aphid (Myzus persicae) are sprayed with an active compound formulation of the desired concentration. After 6 days, the efficacy in % is determined 100% means that all the aphids have been killed; 0% means that none of the aphids have been killed.

A further data set deals with Boophilus microplus. Briefly: Boophilus microplus test (BOOPMI injection). Conditions: 20 μg/animal, after 7 days. The class given is in vivo. How it is done: Boophilus microplus Test (BOOPMI Injection) [table] To produce a suitable active compound formulation, 10 mg of active compound are mixed with 0.5 ml of solvent and the concentrate is diluted with solvent to the desired concentration. The active compound solution is injected into the abdomen (Boophilus microplus), and the animals are transferred into dishes and stored in a climate-controlled room. After 7 days, the efficacy in % is determined. The activity is assessed by laying of fertile eggs. 100% means that none of the ticks has laid any fertile eggs.

Data set [4] relates to larvae of the mustard beetle (Phaedon cochleariae). Briefly: Phaedon cochleariae spray test (PHAECO). Format: in vivo. The note with it: 100 g/ha, spray, after 7 days. A digest of the protocol: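 Chinese cabbage (Brassica pekinensis) leaf discs sprayed with compound in emulsifier-containing water at the desired concentration, dried, then infested with larvae. Efficacy scored after 7 days as % larvae killed (100% = all dead, 0% = none).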

The subject of data set [5] is greenhouse red spider mite (Tetranychus urticae). Briefly: Tetranychus urticae spray test, OP-resistant (TETRUR). Format: in vivo. The note with it: 100 g/ha, spray, after 6 days. How it is done:
as §1
Discs of bean leaves (Phaseolus vulgaris) infested by all stages of the greenhouse red spider mite (Tetranychus urticae) are sprayed with an active compound formulation of the desired concentration.
After 6 days, the efficacy in % is determined 100% means that all the spider mites have been killed; 0% means that none of the spider mites have been killed. […]

In data set [1], `CCn1c(C(=O)NC(c2ccc(F)c(Cl)c2)C(F)(F)F)cc2cc(C(=O)NC3(C#N)CC3)c(Cl)nc21` (stereo not shown) [Compound 26] gave a log p of 3.62. The “efficacy (kill)” value in the data set on Lucilia cuprina larvae, in the data set with adult Musca domestica and in the data set with Ctenocephalides felis was 100% each time. In addition, the efficacy in data set [2], in [3], in [4] and in data set [5] was 100% throughout. Also, in the data set on Boophilus microplus, the “efficacy (laying of fertile eggs)” value is on record as 100%.
`CCn1c(C(=O)NC(c2ccc(F)c(C(F)(F)F)c2)C(F)(F)F)cc2cc(C(=O)NC3(C#N)CC3)c(C)nc21` (stereo not shown) [Compound 75]: in [1], the log p was determined as 3.64. The efficacy in data set [2] worked out at 100%; in [3], 90%; in [4], 100%; in data set [5], 100%.
In turn, `CCn1c(C(=O)NC(c2ccc(F)c(Cl)c2)C(F)(F)F)cc2cc(C(=O)NC3(C#N)CC3)c(C)nc21` (stereo not shown) [Compound 10] gave a log p in data set [1] of 3.51. The “efficacy (kill)” value in the data set on Lucilia cuprina larvae, in the data set with adult Musca domestica and in the data set on Ctenocephalides felis was 100% in each case. The efficacy stood at 100% in data set [2], 90% in data set [3], 100% in data set [4] and 100% in [5]. The “efficacy (laying of fertile eggs)” value in the data set with Boophilus microplus is recorded as 100%.
`CCn1c(C(=O)NC(c2ccc(Cl)c(Cl)c2)C(F)(F)F)cc2cc(C(=O)NC3(C#N)CC3)c(Cl)nc21` (stereo not shown) [Compound 32] gave a log p in [1] of 3.94. Besides, the “efficacy (kill)” value in the data set on Lucilia cuprina larvae, in the data set on adult Musca domestica and with Ctenocephalides felis was 100% throughout. The efficacy in [2], in [4] and in data set [5] was 100% throughout. Besides, the “efficacy (laying of fertile eggs)” value in the data set with Boophilus microplus is recorded as 100%.
Take `CCn1c(C(=O)NC(c2cc(Cl)c(F)c(Cl)c2)C(F)(F)F)cc2cc(C(=O)NC3(C(N)=S)CC3)c(Cl)nc21` (stereo not shown) [Compound 64]: the log p in data set [1] stood at 3.97. Further, the “efficacy (kill)” value in the data set on Lucilia cuprina larvae, in the data set on adult Musca domestica and in the data set with Ctenocephalides felis was 100% throughout. Also, the efficacy in [2], in data set [4] and in data set [5] was 100% throughout. The “efficacy (laying of fertile eggs)” value with Boophilus microplus is on record as 100%.
The compound `CCn1c(C(=O)NC(c2cccc(C(F)(F)F)c2)C(F)(F)F)cc2cc(C(=O)NC3(C#N)CC3)c(Cl)nc21` (stereo not shown) [Compound 11] had a log p in data set [1] of 3.68. The “efficacy (kill)” value in the data set on Lucilia cuprina larvae, with adult Musca domestica and in the data set with Ctenocephalides felis was 100% each time. Moreover, the efficacy in data set [2], in data set [3], in data set [4] and in data set [5] was 100% in each case. Moreover, the “efficacy (laying of fertile eggs)” value in the data set on Boophilus microplus turned out to be 100%.
On to `CCn1c(C(=O)NC(c2ccc(F)c(C(F)(F)F)c2)C(F)(F)F)cc2cc(C(=O)NC3(C#N)CC3)c(Cl)nc21` (stereo not shown) [Compound 53], for which, in [1], the log p amounted to 3.77. Moreover, the “efficacy (kill)” value in the data set on Lucilia cuprina larvae, in the data set on adult Musca domestica and in the data set on Ctenocephalides felis was 100% each time. In addition, the efficacy in [2], in data set [4] and in [5] was 100% each time. The “efficacy (laying of fertile eggs)” value in the data set on Boophilus microplus is given as 100%.
In data set [1], `CCn1c(C(=O)NC(c2cccc(C(F)(F)F)c2)C(F)(F)F)cc2cc(C(=O)NC3CCC3)c(Cl)nc21` (stereo not shown) [Compound 15] displayed a log p of 4.12. The efficacy in [3] was 90%; in data set [4], 100%.
In data set [1], `CCn1c(C(=O)NC(c2cc(Cl)c(F)c(Cl)c2F)C(F)(F)F)cc2cc(C(=O)NC3(C(N)=S)CC3)c(Cl)nc21` (stereo not shown) [Compound 63] displayed a log p of 4.20. Further, the “efficacy (kill)” value with Lucilia cuprina larvae, in the data set on adult Musca domestica and in the data set with Ctenocephalides felis was 100% in each case. Further, the results for the efficacy in data set [2], in data set [4] and in data set [5] were 100%, 100% and 90%, respectively. Besides, the “efficacy (laying of fertile eggs)” value in the data set on Boophilus microplus was determined as 100%.
In the case of `CCn1c(C(=O)NC(c2cccc(C(F)(F)F)c2)C(F)(F)F)cc2cc(C(=O)NC3(C#N)CC3)c(C)nc21` (stereo not shown) [Compound 6], the log p in [1] is on record as 3.53. Further, the “efficacy (kill)” value in the data set with Lucilia cuprina larvae, in the data set on adult Musca domestica and with Ctenocephalides felis was 100% in each case. Besides, the efficacy in [2] is 100%; in data set [3], 100%; in data set [4] it was 100%; in data set [5], 90%. Further, the “efficacy (laying of fertile eggs)” value with Boophilus microplus turned out to be 100%.
